# Laboratory results as given in patent publication US7250268B2, “Assay for measuring IκB kinase activity and identifying IκB kinase modulators” (Bristol-Myers Squibb Company, priority 2003, dated 2007).
# Where a SMILES comes first, the peptide text is derived from it. [ ]: non-standard residue; d: D form. The star is where a group is joined. Nle = CCCC[C@H](N)C(=O)O; Cbz = O=C(OCc1ccccc1)*
# Experiments:
# [1] = tested on: Jurkat IκB-Bla cells; assay: Responsiveness of Jurkat IκB-Bla cells to proinflammatory treatments that activate the NFκB pathway; format: cell-based
# Experimental: The responsiveness of the Jurkat IκB-Bla cells to proinflammatory treatments known to activate the NFκB pathway was tested. Cells were treated with 10 ng/ml TNFα, 10 nM PMA, 10 μg/ml PHA or 100 ng/ml IL-1β for the times indicated in FIG. 8A and then loaded with CCF2 and read on a fluorescence plate reader. […] The apparent insensitivity to IL-1β may be explained by low expression of IL-1 receptor in Jurkat cells.
# To establish that the TNFα-stimulated decrease in β-lactamase activity was due to phosphorylation of IκB on serines-32 and -36, the responsiveness of Jurkat cells expressing the S32A, S36A IκB mutant as a fusion with β-lactamase was tested. The IκB(S32A, S36A)-Bla cell line was created exactly as described above for wild-type IκB-Bla cells. The cells were treated with 10 ng/ml TNFα for 30 minutes and then loaded with CCF2/AM. As shown in the comparison of wild-type construct to mutant in FIGS. 9A and 9B, respectively, the mutation of serines-32 and -36 abolished the decrease in β-lactamase activity in response to TNFα treatment.
# [2] = target: T1, proteasome (Homo sapiens, UniProt P28074); assay: Jurkat IκB-Bla reporter assay, inhibition of the TNFα-stimulated decrease in reporter level by proteasome inhibitors; format: cell-based
# T1 construct: other: Jurkat IκB-Bla cells, TNFα stimulation; effect on the TNFα-stimulated decrease in reporter level; other: 10 μM for 60 minutes prior to TNFα 10 ng/ml; CCF2/AM
# T1 sequence (P28074 60-263): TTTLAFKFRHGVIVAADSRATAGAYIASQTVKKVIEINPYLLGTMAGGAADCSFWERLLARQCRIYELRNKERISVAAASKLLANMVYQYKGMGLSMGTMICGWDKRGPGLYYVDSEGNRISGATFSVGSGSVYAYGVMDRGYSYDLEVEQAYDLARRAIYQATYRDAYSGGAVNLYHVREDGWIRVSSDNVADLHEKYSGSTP
# T1 sequence (P28072 35-239 partner): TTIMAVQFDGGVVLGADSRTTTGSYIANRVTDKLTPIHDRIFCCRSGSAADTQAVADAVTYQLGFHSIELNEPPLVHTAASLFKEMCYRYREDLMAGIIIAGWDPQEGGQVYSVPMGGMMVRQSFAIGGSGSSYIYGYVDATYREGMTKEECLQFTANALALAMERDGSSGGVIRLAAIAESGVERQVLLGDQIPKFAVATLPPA
# T1 sequence (Q99436 44-277 partner): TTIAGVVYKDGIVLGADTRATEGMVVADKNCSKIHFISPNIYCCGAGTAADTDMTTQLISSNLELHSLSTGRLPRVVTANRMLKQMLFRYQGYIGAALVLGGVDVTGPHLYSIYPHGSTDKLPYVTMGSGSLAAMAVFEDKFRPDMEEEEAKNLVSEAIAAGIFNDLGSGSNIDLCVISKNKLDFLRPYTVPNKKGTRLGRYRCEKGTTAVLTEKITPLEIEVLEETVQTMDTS
# Experimental: (§1) Therefore, the requirement of proteasome activity on β-lactamase activity was tested. […] Reporter activity was determined using CCF2/AM.
# [3] = tested on: proteasome; assay: as above; format: cell-based, Human; conditions: 10 μM, no TNFα; FIG. 10
# Experimental: as §1
compound,measurement,setting,value
C[C@@H]1C[C@@H]([C@H](O)CC2CC(=O)NC(=O)C2)C(=O)[C@@H](C)C1 [cycloheximide],effect of blocking protein synthesis on the TNFα-stimulated decrease in β-lactamase activity,"[1]; 100 μg/ml added at the time of TNFα addition (10 ng/ml, 30 minutes), FIG. 9",did not have a strong synergistic effect
CC(C)C[C@@H](C=O)NC(=O)[C@H](CC(C)C)NC(=O)[C@H](CC(C)C)NC(=O)OCc1ccccc1 [MG132] (Cbz-Leu-Leu-Leu-aldehyde),effect on the TNFα-stimulated decrease in reporter level,"[2]; 10 μM for 60 minutes prior to TNFα 10 ng/ml, CCF2/AM, FIG. 10",efficiently inhibited
same,effect of inhibitor alone on reporter levels,[3],little to no effect
CCCC[C@@H](C=O)NC(=O)[C@H](CC(C)C)NC(=O)[C@H](CC(C)C)NC(C)=O [ALLN] (Ac-Leu-Leu-[Nle]-aldehyde),IC50,"[2]; Jurkat IκB-Bla cells, TNFα stimulation, data not shown, read-out: IC50 for inhibition of the TNFα-stimulated decrease in reporter levels",5 µM
IL-1β: proinflammatory cytokine; low IL-1 receptor expression in Jurkat cells suggested,response of IκB-Bla reporter level (β-lactamase activity) to treatment,"[1]; 10 nM PMA, 10 μg/ml PHA or 100 ng/ml IL-1β, extended treatment for PMA and PHA, FIG. 8A",insensitivity
TNFα,decrease in β-lactamase activity,"[1]; 10 ng/ml, within 30 minutes, CCF2, FIG. 8A",2 fold
